Assay results published in patent publication US20210128680A1, “METHOD FOR TREATING CARDIOPULMONARY DISORDER” (Chang Gung University, priority 2019, published 2021).
Entries after “also recorded” stand apart in the source; their conditions may differ.

What was measured:
[1] = system: MCT PASMCs; test: BrdU incorporation cell proliferation assay, MCT PASMCs; type: cell-based, rat; details: FIG. 5 panel B
Method: (§1) PASMCs were isolated from lungs of MCT-treated or control rats using the explant method, as described previously (Lai Y J et al. Am J Respir Crit Care Med. 2008, 178(2):188-96). To culture PASMCs, the PA was dissected from lung and cardiac tissues. The pulmonary arterial tissue was cut into small pieces and suspended in Dulbecco's modified Eagle's medium (DMEM) (Gibco) containing 100 U/mL penicillin, 100 µg/mL streptomycin (Gibco), and 20% fetal bovine serum (FBS) (Gibco). We observed a decrease in desmin, a smooth muscle cell gene marker, at passage 3. Therefore, rat PASMCs were used before passage 3 for all of the in vitro experiments. Characterization of PASMCs was performed by immunocytochemical staining with anti-α-SM-actin (Sigma-Aldrich) and anti-desmin (NeoMakers) antibodies.
(§2) The proliferative activity of PASMCs and the effects of the lumikine were determined by an ELISA-based 5-bromo-2-deoxyuridine (BrdU) incorporation assay kit (Roche Diagnostics Co.) according to the manufacturer's instructions.
(§3) Proliferation of PASMC is critical to the development of PAH. To characterize whether lumikine affected the proliferation of PASMCs in PAH and non-PAH subjects, the PASMCs were isolated from rats with or without MCT induced PAH.

[2] = system: human PASMCs; test: Western blot of protein expression in human PASMCs under in vitro hypoxia; type: cell-based
Method: Human PASMCs were obtained from commercial sources (Lonza). Cells were grown in SMC growth medium (5% FBS, 1 μg/ml hydrocortisone, 10 ng/ml human epidermal growth factor, 3 ng/ml basic fibroblast growth factor, 10 μg/ml heparin, 10 μg/ml gentamycin, and 0.25 μg/ml amphotericin) (Lonza) and were used between passages 4 and 7. Cells were starved in SMC medium with 0.1% FBS for 24 h before the experiment. Human PASMCs were cultured in the TGF-β 2.5 ng/ml condition for 6 hours to determine the effect of lumikine on the protein expressions.
Human PASMCs were cultured in the hypoxic condition for 24 hours to determine the effect of lumikine on the protein expressions. Hypoxia was created in an incubator: 5% CO2+94% N2+[…], 37° C. Lumikine were dissolved in culture medium at a final concentration of 100 nM.
Tissue samples or cell samples were homogenized in lysis buffer containing 50 mM Tris-HCl, pH 7.4, 50 mM NaCl, 5 mM EDTA, 1% Triton X-100, 0.05% SDS, 50 mM NaF, 10 mM β-glycerophosphate, sodium pyrophosphate, 100 μM Na3VO4, and protease inhibitor cocktail (Calbiochem, Millipore). Immunoblotting was performed using anti-lumican (Abcam; 1:2000), ant-HIF-1α(Abeam; 1:1000), anti-p-AKT, or AKT (Cell Signaling; 1:1000), and anti-p-SMAD2 (Cell Signaling; 1:1000), as primary antibodies. Secondary antibodies specific for peroxidase-conjugated anti-mouse IgG (Jackson; 1:10000) or anti-rabbit IgG (Jackson; 1:10000) were used as needed. Blots were visualized using an enhanced chemi-luminescence detection system (Millipore). Samples were normalized to GAPDH (Santa Cruz; 1:10000) and quantified by densitometry.
In this example, in vitro hypoxic (1% oxygen) model was used to evaluate the effect of the present synthetic peptide—lumikine (SEQ ID NO: 2) on pulmonary arterial smooth muscle cell (PASMCs).

[3] = system: control (CON) PASMCs; test: BrdU incorporation cell proliferation assay, control PASMCs; type: cell-based, rat; details: compared with vehicle treatment, FIG. 5
Method: as §1, §2, §3

[4] = system: MCT PASMCs; test: pAKT expression in MCT PASMCs; type: cell-based, rat
Method: as §1
Tissue samples or cell samples were homogenized in lysis buffer containing 50 mM Tris-HCl, pH 7.4, 50 mM NaCl, 5 mM EDTA, 1% Triton X-100, 0.05% SDS, 50 mM NaF, 10 mM β-glycerophosphate, sodium pyrophosphate, 100 μM Na3VO4, and protease inhibitor cocktail (Calbiochem, Millipore). […] Blots were visualized using an enhanced chemi-luminescence detection system (Millipore). Samples were normalized to GAPDH (Santa Cruz; 1:10000) and quantified by densitometry.

[5] = system: hypoxia-induced PAH mice; test: Hypoxia-induced PAH mice: RV hypertrophy and pulmonary artery medial wall thickness; type: in vivo; details: for right ventricular (RV) weight (RV/LV+S ratio): hypoxia (10% O2) mice, 3 ng/kg/day, 28 days, FIG. 6 panel A
Method: Adult male Sprague-Dawley rats (200-250 g in body weight) were randomized assigned into two groups for treatment of 28 days after s.c. injection of saline or 60 mg/kg monocrotaline (MCT) (Sigma-Aldrich) to induce pulmonary hypertension (PH). Rats were examined after 3 weeks of treatment (on day 28). Hypoxic pulmonary vascular remodeling was induced by exposure of mice (8-week-old C57BL/6) to chronic hypoxia (10% 02) in a ventilated chamber, as described previously (Li H H et al. Am J Physiol Lung Cell Mol Physiol. 2017: ajplung 00245 2017). The chronic effects of lumikne were assessed in mice exposed to hypoxia for 28 days. Briefly, animals were kept in hypoxic conditions to develop pulmonary hypertension. […] All animal experimental protocols were reviewed and approved by the Chang Gung University IACUC. This study was carried out in strict accordance with the recommendations in the Guide for the Care and Use of Laboratory Animals of the National Institutes of Health. Housing and maintenance was provided by Chang Gung University, and all animals were fed a standard chow diet with free access to water. After sacrifice, the RV wall was separated from the LV wall and ventricular septum. Wet weight of the RV, free LV wall, and ventricular septum was determined and weighted. RV hypertrophy was expressed as the ratio of weight of the RV wall and that of the free LV wall and ventricular septum (LV+S). Fixation was performed by immersion of the lungs in a 10% paraformaldehyde solution. For paraffin embedding, the entire lungs were dissected in tissue blocks from all lobes. Sectioning at 5 μm was performed from all paraffin-embedded blocks. To assess the type of remodeling of muscular pulmonary arteries, the percentage of MWT was utilized to characterize vascular medial hypertrophy by α-SM-actin staining. Under 400× microscopic examination, MWT was defined as the distance between the internal and external elastic laminae using “ImageJ” software downloaded from the open source available from the internet. […]

| Compound | effect on lumikine inhibition of MCT PASMC proliferation ([1]; H89 with lumikine (100 nM)) | level of lumican ([2]; lumikine 100 nM, hypoxic condition 24 hours, FIG. 4 panel B) | level of HIF-1α ([2]; lumikine 100 nM, hypoxic condition 24 hours, FIG. 4 panel C) | level of pSmad3 ([2]; lumikine 100 nM, hypoxic condition 24 hours, FIG. 4 panel D) | level of pAKT ([2]; lumikine 100 nM, hypoxic condition 24 hours, FIG. 4 panel E) | Smad4 ([2]; lumikine treatment, hypoxic condition, FIG. 4F) | serum-induced PASMC proliferation ([1]; 10% FBS) | proliferation of control PASMCs [3] | pAKT expression [4] | right ventricular (RV) weight (RV/LV+S ratio) [5] | right ventricular (RV) weight (RV/LV+S ratio) ([5]; listed as Lumikine) | medial wall thickness (MWT) of the pulmonary artery ([5]; hypoxia mice, 3 ng/kg/day for 21 days (days 8-28), PAs 25-100 μm, FIG. 6 panel B) |
| --- | --- | --- | --- | --- | --- | --- | --- | --- | --- | --- | --- | --- |
| O=S(=O)(NCCNC/C=C/c1ccc(Br)cc1)c1cccc2cnccc12 [H89, reference compound] | reversed | – | – | – | – | – | – | – | – | – | – | – |
| lumikine: synthetic peptide X1EX2LRVANEVTLN (SEQ ID NO: 1) in which X1 is tyrosine (Y) and X2 is alanine (A) (YEALRVANEVTLN) | – | increase | reduction | reduction | reduction | remained unaffected | dose-dependently decrease; also recorded: inhibited significantly | no significantly effects; also recorded: did not affect | reduced | significantly reduced | reduction | significantly reduction |
